# Measured values: patent US4695570A, “Antiviral compound use” (Burroughs Wellcome Co., priority 1985, dated 1987)
# How the values were obtained:
# [1] = Water solubility at 25° C; assay type: physicochemical
# [2] = tested on: herpes viruses such as herpes simplex; conditions: cited from earlier work
# [3] = cited from earlier work
# adenosine deaminase = conditions: depends on adenosine deaminase; Good and de Miranda 1982; cited from earlier work
# [4] = tested on: xanthine oxidase from bovine milk; test: Enzyme studies: rate of oxidation by xanthine oxidase from bovine milk; assay type: biochemical
# Source text: The discovery that the 6-hydrogen purine of formula (I) above can be readily converted into its corresponding 6-hydroxy analogue is surprising since in previous studies with xanthine oxidase from bovine milk (H. Lettre et al. (1967) Biochem. Pharmacol., 16, 1747-1755; T. A. Krenitsky et al. (1972) Arch. Biophys., 150, 585-599) it was shown that 9-substitution obliterates or greatly diminishes the rate at which a variety of purines are oxidized.
# Beagle dogs = test: Toxicity study in Beagle dogs, per os; assay type: in vivo; conditions: 40 mg/kg/day, once daily 5 days
# Experimental: Two male and 2 female Beagle dogs were given 6-deoxyacyclovir per os (once daily for 5 consecutive days) at a dose level of 40 mg/kg/day. There were no effects in 1 male and 1 female sacrificed at the end of the treatment period or in 1 male and 1 female sacrificed after a 2 week post-dose period.
# [5] = Oral absorption and acyclovir blood/plasma levels in rats; assay type: in vivo
# Experimental: The following experiments were carried out to determine the urinary excretion and plasma levels of acyclovir after oral dosing of rats with acyclovir, 6-deoxyacyclovir and the 6-amino analogue thereof i.e. 2,6-diamino-9-(2-hydroxyethoxymethyl)purine, hereinafter referred to as aminoacyclovir.
# Long Evans male rats were dosed by intragastric needle with the drug and placed in metabolic cages which separated urine from feces. The collected urine and plasma samples were analyzed for acyclovir content by a radioimmunoassay (Quinn, R. P., et al., Anal. Biochem., 98, 319 (1979)).
# [6] = tested on: xanthine oxidase/dehydrogenase or aldehyde oxidase; test: Ex vivo (in vitro) enzymatic oxidation to acyclovir; assay type: biochemical
# Source text: (§1) It is thus possible to synthesize acyclovir in the body (i.e. in vivo) by administering 6-deoxyacyclovir to mammals including humans wherein the 6-deoxyacyclovir is acted upon by xanthine oxidase/dehydrogenase or aldehyde oxidase in the body and is thereby converted into acyclovir. […] Oxygen or other appropriate electron acceptors such as ferricyanide ion or methylene blue may serve as the oxidizing agent. Microorganisms which contain or produce xanthine oxidase/dehydrogenase may be used to effect the conversion of 6-deoxyacyclovir to acyclovir.
# [7] = tested on: bovine milk xanthine oxidase; test: Enzymatic conversion of 6-deoxyacyclovir to acyclovir by bovine milk xanthine oxidase (Example 2); assay type: biochemical; conditions: 24 hours, 43.6 μM substrate, pH 6.8, 25° C, atmospheric oxygen; UV monitoring
# Experimental: A solution (20 μL) of a purified bovine milk xanthine oxidase containing 1.06 units (nmoles of xanthine oxidized per minute) of activity was added to 500 μL of a solution 43.6 μM with respect to 6-deoxyacyclovir, 0.05M with respect to potassium phosphate and 0.13 mM with respect to ethylenediaminetetraacetic acid at pH 6.8 and 25° C. The reaction mixture was equilibrated with atmospheric oxygen, and the oxygen served as the electron acceptor. […] The indentity of acyclovir as the product of the reaction was confirmed by its NMR spectrum.
# [8] = tested on: xanthine oxidase/dehydrogenase or aldehyde oxidase
# Source text: as §1
smiles,measurement,setting,value
"Nc1nc2c(ncn2COCCO)c(=O)[nH]1 [acyclovir, 9-(2-hydroxyethoxymethyl)guanine]",solubility in water,[1],1250 µg/mL
same,activity against herpes viruses,[2]; herpes viruses such as herpes simplex,particularly good activity against herpes viruses
same,effectiveness upon topical or parenteral administration,[2]; topical or parenteral,especially effective upon topical or parenteral administration
same,absorption upon oral administration,[3],only moderately well absorbed upon oral administration
"Nc1nc(N)c2ncn(COCCO)c2n1 [aminoacyclovir, 2,6-diamino-9-(2-hydroxyethoxymethyl)purine]",conversion to acyclovir in vivo,adenosine deaminase,depends on adenosine deaminase for conversion to acyclovir in vivo
"Nc1ncc2ncn(COCCO)c2n1 [6-deoxyacyclovir, 2-Amino-9-(2-hydroxyethoxymethyl)purine]",rate of oxidation relative to the 9-unsubstituted purine,[4],at a faster rate than the 9-unsubstituted purine
same,effects in toxicity study,Beagle dogs; after 2 week post-dose period,no effects
same,effects in toxicity study,Beagle dogs; end of treatment,no effects
same,blood levels of acyclovir compared with oral acyclovir itself,[5],higher blood levels of acyclovir are obtainable with 6-deoxyacyclovir than with acyclovir itself
same,absorption from the gastro-intestinal tract and plasma levels of acyclovir,[5]; rats,efficient absorption from the gastro-intestinal tract and high plasma levels of the corresponding acyclovir
same,ex vivo (in vitro) enzymatic oxidation to acyclovir,[6],demonstrated that acyclovir may be synthesized
same,conversion to acyclovir,[7],nearly complete conversion to acyclovir
same,conversion in vivo into acyclovir,[8],readily converted in vivo
